{"source": "paper PMC8429549", "about": "“Glycosylation reduces the glycan-independent immunomodulatory effect of recombinant Orysata lectin in Drosophila S2 cells” (Scientific Reports, 2021)", "biological_target": "T1, BOry (recombinant Orysata from E. coli) (Oryza sativa, UniProt Q0JMY8)", "T1 construct": "gene SALT; pColdII, N-terminal poly-His tag kept; E. coli BL21; non-glycosylated", "T1 sequence (Q0JMY8 1-145)": "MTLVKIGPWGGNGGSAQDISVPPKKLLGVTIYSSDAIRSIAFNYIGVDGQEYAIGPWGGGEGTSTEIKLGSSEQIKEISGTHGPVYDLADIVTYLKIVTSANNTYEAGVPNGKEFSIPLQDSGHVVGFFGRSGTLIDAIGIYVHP", "assay": "competition: FITC-BOry on blot of glycosylated YOry", "assay_type": "binding", "settings": "20 mM mannose in PBS preincubated 20 min; FITC-labelled lectin; competitive with the N-glycan of YOry", "data": [{"smiles": "OC[C@H]1OC(O)[C@@H](O)[C@@H](O)[C@@H]1O", "note": "(stereo partly shown) [mannose]", "values": [{"measurement": "competition: FITC-BOry on blot of glycosylated YOry", "result": "Preincubation of the FITC-BOry with mannose, abolished the binding to the glycosylated YOry"}]}]}
